Test results: PMC6957260 (European journal of medicinal chemistry, 2013)

Experiments:
rat TRPV1 [1] = target: T1, rat TRPV1 (Rattus norvegicus, UniProt O35433); assay: functional 45Ca2+ uptake assay, agonism, rat TRPV1 in CHO cells; format: cell-based; conditions: for fold less potency for agonism compared to the parent compound: rat TRPV1, parents 2 and 3, respectively
human TRPV1 = human TRPV1 (Homo sapiens, UniProt Q8NER1); format: cell-based
rat TRPV1 [2] = target: T1, rat TRPV1; assay: competitive binding assay with [3H]RTX, rat TRPV1 in CHO cells; conditions: parents 2 and 3, respectively
rat TRPV1 [3] = target: T1, rat TRPV1; conditions: cited from earlier work
rat TRPV1 [4] = target: T1, rat TRPV1; format: cell-based
hTRPV1 = hTRPV1 in HEK-293 cells, cited from earlier work; for EC50: read-out: agonism EC50

T1 sequence (O35433 whole entry): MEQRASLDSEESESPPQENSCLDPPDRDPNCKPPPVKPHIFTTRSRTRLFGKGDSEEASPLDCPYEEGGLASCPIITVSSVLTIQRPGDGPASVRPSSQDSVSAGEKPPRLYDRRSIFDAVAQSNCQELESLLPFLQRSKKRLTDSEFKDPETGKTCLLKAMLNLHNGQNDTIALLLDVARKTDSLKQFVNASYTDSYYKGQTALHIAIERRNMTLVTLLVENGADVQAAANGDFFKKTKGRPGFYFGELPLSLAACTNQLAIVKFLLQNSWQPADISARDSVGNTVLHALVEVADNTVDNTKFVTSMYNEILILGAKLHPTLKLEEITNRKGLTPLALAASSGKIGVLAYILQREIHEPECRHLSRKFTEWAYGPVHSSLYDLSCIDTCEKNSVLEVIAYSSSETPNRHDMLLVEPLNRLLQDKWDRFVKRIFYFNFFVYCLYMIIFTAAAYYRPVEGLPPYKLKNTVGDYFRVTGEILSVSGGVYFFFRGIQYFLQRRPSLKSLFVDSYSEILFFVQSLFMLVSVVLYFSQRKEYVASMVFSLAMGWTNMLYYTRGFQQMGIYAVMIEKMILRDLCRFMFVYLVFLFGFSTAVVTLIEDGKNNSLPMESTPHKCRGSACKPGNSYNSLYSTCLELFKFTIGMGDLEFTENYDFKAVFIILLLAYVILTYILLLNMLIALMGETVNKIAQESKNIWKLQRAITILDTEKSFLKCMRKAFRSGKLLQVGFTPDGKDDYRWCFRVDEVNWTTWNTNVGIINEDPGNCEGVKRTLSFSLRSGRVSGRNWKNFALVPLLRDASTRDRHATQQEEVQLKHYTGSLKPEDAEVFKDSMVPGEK
human TRPV1, sequence (Q8NER1 whole entry): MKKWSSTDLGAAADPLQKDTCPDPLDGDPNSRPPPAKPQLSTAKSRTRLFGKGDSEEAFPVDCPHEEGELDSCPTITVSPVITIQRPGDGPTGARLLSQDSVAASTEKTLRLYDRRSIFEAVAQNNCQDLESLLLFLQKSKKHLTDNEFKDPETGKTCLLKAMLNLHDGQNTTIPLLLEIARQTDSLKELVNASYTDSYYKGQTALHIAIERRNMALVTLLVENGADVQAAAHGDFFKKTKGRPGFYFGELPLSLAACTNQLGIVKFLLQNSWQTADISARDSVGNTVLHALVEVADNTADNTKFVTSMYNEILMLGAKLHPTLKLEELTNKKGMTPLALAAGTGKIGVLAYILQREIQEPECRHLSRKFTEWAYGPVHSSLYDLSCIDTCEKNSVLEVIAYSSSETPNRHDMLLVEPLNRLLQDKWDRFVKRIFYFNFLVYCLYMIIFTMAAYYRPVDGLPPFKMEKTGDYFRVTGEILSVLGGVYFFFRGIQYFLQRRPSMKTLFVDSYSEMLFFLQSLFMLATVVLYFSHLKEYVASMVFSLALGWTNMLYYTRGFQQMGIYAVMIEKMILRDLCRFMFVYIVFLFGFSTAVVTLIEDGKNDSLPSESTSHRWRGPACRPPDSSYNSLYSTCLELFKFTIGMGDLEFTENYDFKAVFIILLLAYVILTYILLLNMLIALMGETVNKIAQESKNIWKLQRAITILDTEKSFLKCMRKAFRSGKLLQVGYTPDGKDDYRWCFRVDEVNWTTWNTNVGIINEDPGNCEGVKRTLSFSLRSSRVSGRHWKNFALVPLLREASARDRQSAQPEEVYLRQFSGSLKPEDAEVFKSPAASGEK

C=C(C)[C@]12C[C@@H](C)[C@@]34O[C@](Cc5ccccc5)(O[C@@H]1[C@@H]3C=C(COC(=O)Oc1cc(Cl)c(O)c(OC)c1)C[C@]1(O)C(=O)C(C)=C[C@@H]41)O2 [Compound 58]
mean % of agonism relative to capsaicin (rat TRPV1 [1]): a The mean % of agonism relative to capsaicin: 13% for 58, 89% for 63, 83% for 64. | mean % of agonism relative to capsaicin (human TRPV1): a The mean % of agonism relative to capsaicin: 52% for 58, 90% for 64.

C=C(C)[C@]12C[C@@H](C)[C@@]34O[C@](Cc5ccccc5)(O[C@@H]1[C@@H]3C=C(COC(=O)Oc1cc(F)c(O)c(OC)c1)C[C@]1(O)C(=O)C(C)=C[C@@H]41)O2 [Compound 57]
fold less potent than RTX (functional activity, agonism) (rat TRPV1 [1]; rTRPV1): ca. 5 fold

C=C(C)[C@]12C[C@@H](C)[C@@]34O[C@](Cc5ccccc5)(O[C@@H]1[C@@H]3C=C(COC(=O)Oc1cc(F)c(N)c(OC)c1)C[C@]1(O)C(=O)C(C)=C[C@@H]41)O2 [Compound 64]
mean % of agonism relative to capsaicin (human TRPV1): a The mean % of agonism relative to capsaicin: 52% for 58, 90% for 64.

C=C(C)[C@]12C[C@@H](C)[C@@]34O[C@](Cc5ccccc5)(O[C@@H]1[C@@H]3C=C(COC(=O)Oc1ccc(N)c(OC)c1)C[C@]1(O)C(=O)C(C)=C[C@@H]41)O2 [Compound 62]
fold less potency for agonism compared to the parent compound (rat TRPV1 [1]): 4 fold | fold less potency in binding affinity compared to the parent compound (rat TRPV1 [2]): 4.5 fold

C=C(C)[C@@]12C[C@@H](C)C34OC(Cc5ccccc5)(OC1[C@@H]3C=C(COC(=O)Cc1cc(Br)c(N)c(OC)c1)C[C@]1(O)C(=O)C(C)=C[C@@H]41)O2 (some centres unmarked) [5-bromo-4-amino RTX]
fold more potent than 5′-iodo RTX (antagonism) (rat TRPV1 [3]): 4.5 fold

C=C(C)[C@]12C[C@@H](C)[C@@]34O[C@](Cc5ccccc5)(O[C@@H]1[C@@H]3C=C(COC(=O)Oc1ccc(NS(C)(=O)=O)c(OC)c1)C[C@]1(O)C(=O)C(C)=C[C@@H]41)O2 [Compound 63]
fold less potency for agonism compared to the parent compound (rat TRPV1 [1]): 40 fold | fold less potency in binding affinity compared to the parent compound (rat TRPV1 [2]): 5.5 fold

C=C(C)[C@]12C[C@@H](C)[C@@]34O[C@](Cc5ccccc5)(O[C@@H]1[C@@H]3C=C(COC(=O)Oc1cc(Cl)c(N)c(OC)c1)C[C@]1(O)C(=O)C(C)=C[C@@H]41)O2 [Compound 65]
fold more potent than I-RTX (antagonism) (rat TRPV1 [4]): ca. 5 fold

C=C(C)[C@]12C[C@@H](C)[C@@]34O[C@](Cc5ccccc5)(O[C@@H]1[C@@H]3C=C(COC(=O)Oc1cc(Br)c(N)c(OC)c1)C[C@]1(O)C(=O)C(C)=C[C@@H]41)O2 [Compound 66]
fold more potent than I-RTX (antagonism) (rat TRPV1 [4]): ca. 5 fold

C=C(C)[C@]12C[C@@H](C)[C@@]34O[C@](Cc5ccccc5)(O[C@@H]1[C@@H]3C=C(COC(=O)Oc1cc(I)c(O)c(OC)c1)C[C@]1(O)C(=O)C(C)=C[C@@H]41)O2 [Compound 60]
fold more potent than RTX (agonism) (hTRPV1): ca. 4 fold | EC50 (hTRPV1): 0.0047 nM

C=C(C)[C@]12C[C@@H](C)[C@@]34O[C@](Cc5ccccc5)(O[C@@H]1[C@@H]3C=C(COC(=O)Cc1ccc(O)c(OC)c1)C[C@]1(O)C(=O)C(C)=C[C@@H]41)O2 [Compound 1, Resiniferatoxin, reference compound]
EC50 (hTRPV1): 0.019 nM
